Measurements as given in ChEMBL document CHEMBL1153669, “Rs-100235: A high affinity 5-HT4 receptor antagonist” (Bioorg Med Chem Lett, 1995).

Biological target: 5-hydroxytryptamine receptor 4 (Rattus norvegicus) (UniProt Q62758)
Test: Antagonist activity against 5-HT4 receptor mediated relaxation of rat carbachol contracted esophageal muscularis mucosae
Assay type: functional

5-hydroxytryptamine receptor 4 (Rattus norvegicus), sequence (Q62758 whole entry): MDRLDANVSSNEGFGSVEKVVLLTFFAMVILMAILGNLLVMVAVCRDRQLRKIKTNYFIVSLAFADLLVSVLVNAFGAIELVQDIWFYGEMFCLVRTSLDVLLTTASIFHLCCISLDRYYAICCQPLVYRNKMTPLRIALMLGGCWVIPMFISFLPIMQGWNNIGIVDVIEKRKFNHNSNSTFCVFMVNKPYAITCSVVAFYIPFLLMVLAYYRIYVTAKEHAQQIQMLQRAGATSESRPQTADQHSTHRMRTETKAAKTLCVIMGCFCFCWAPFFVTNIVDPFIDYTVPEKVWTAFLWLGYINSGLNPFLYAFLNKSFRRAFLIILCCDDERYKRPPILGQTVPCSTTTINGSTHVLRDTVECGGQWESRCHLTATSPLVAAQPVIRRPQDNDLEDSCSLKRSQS

pKb	SMILES
9.6	Nc1c(Cl)cc(C(=O)CCC2CCN(CCCc3ccccc3)CC2)c2c1OCCO2
9	Cn1cc(C(=O)OCC2CCN(CCNS(C)(=O)=O)CC2)c2ccccc21
9.9	CCCCN1CCC(CCC(=O)c2cc(Cl)c(N)c3c2OCCO3)CC1
9.9	CS(=O)(=O)NCCN1CCC(CCC(=O)c2cc(Cl)c(N)c3c2OCCO3)CC1
